pIC50: −log10 of the molar value. Converted amounts (≈) assume the structure as drawn. Numbered stars: 1 amine (or outer) side, 2 acyl side, 3 side chain; on linkers, the order of the positions; unused ones are H or OH. Bridge positions count the residues as written; N and C are the ends. Square brackets hold non-standard residues; d marks the D form. Peptide text beside a SMILES is read from it. * marks the point of attachment. pTerphenylCO(4''-OnC5H11) = CCCCCOc1ccc(-c2ccc(-c3ccc(C(=O)*)cc3)cc2)cc1; Orn(4R-OH,5R-OH) = O=C([C@H](C[C@@H](O)[C@@H](O)N[*:3])N[*:1])[*:2]; hTyr(3S-OH,4S-OH) = N[C@H](C(=O)O)[C@H](O)[C@@H](O)c1ccc(O)cc1; Pro(3S-OH,4S-Me) = C[C@H]1CN[C@H](C(=O)O)[C@H]1O; Gln(3R-OH) = NC(=O)C[C@@H](O)[C@H](N)C(=O)O; X1 = CCCCCCCCCCCCC[C@H](CC(=O)[*:1])O[*:2]; Pro(3S-OH) = O=C(O)[C@H]1NCC[C@@H]1O; d(aThr) = C[C@@H](O)[C@@H](N)C(=O)O; Hyp = O=C(O)[C@@H]1C[C@@H](O)CN1; Orn = NCCC[C@H](N)C(=O)O
Legend:
[1] = target: Beta-1,3-glucan synthase (Candida albicans, UniProt O13428); experiment: In vitro inhibitory activity against Beta glucan synthase
Chain of Beta-1,3-glucan synthase (O13428 whole entry): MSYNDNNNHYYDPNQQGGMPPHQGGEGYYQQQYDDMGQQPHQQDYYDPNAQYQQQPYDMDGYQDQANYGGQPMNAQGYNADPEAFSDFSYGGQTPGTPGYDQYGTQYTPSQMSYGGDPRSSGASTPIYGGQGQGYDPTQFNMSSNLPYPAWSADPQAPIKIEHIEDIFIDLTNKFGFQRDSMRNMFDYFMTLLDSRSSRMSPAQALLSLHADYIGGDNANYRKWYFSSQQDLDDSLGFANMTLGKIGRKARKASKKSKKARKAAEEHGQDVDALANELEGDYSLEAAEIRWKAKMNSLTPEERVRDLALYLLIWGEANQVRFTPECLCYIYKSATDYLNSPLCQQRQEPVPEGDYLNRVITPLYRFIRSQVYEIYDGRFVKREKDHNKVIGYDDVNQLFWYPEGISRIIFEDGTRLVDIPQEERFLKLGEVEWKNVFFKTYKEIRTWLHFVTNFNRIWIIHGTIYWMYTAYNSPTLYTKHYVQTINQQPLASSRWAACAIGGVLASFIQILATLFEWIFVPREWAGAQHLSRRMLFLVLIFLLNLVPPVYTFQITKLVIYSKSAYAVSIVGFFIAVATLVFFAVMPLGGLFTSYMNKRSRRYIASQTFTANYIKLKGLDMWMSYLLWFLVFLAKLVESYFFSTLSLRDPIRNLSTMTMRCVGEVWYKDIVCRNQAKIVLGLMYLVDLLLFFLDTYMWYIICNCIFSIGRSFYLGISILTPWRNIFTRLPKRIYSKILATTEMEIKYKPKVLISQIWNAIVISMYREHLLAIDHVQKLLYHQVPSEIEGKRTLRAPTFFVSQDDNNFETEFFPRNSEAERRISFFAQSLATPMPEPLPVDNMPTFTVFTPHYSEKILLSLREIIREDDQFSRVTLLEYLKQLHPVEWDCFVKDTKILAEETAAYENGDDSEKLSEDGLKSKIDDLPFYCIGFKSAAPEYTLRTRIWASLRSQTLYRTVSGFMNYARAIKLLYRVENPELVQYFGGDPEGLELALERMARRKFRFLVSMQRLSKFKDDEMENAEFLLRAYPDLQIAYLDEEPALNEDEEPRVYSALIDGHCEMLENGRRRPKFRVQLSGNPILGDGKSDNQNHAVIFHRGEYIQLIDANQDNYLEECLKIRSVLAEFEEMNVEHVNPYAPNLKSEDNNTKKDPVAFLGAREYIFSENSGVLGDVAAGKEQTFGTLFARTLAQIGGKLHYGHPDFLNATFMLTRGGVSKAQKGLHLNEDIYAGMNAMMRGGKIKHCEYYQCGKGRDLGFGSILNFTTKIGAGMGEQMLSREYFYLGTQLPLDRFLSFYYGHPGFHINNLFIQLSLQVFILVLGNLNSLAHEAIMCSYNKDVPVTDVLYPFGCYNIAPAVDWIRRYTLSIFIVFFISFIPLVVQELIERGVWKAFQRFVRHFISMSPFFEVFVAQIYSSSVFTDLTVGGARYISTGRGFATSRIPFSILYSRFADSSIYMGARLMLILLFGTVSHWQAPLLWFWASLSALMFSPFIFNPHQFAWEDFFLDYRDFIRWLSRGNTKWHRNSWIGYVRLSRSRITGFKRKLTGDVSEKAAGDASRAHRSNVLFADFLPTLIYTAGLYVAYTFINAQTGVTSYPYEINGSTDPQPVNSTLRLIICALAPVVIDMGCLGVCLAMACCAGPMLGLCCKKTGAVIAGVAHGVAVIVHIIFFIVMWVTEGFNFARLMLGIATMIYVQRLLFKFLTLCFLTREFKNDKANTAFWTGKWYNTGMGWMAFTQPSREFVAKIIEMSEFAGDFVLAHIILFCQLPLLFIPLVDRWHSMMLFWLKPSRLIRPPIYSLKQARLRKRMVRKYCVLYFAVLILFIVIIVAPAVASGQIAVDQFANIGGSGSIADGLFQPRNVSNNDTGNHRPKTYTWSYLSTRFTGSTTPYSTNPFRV

[2] = tested on: Mus musculus; experiment: In vivo efficacy against Aspergillus fumigatus CF1083 1E4 conidia/g for pulmonary aspergillosis in mice after iv treatment on day 14; type: functional; details: 336 h
[3] = tested on: Candida albicans; experiment: In vitro antifungal activity against Candida albicans CY1002; type: functional, organism-based
[4] = organism: Mus musculus; experiment: Hepatotoxicity using inclusion-body formation test in hepatocytes of mice; type: functional, Hepatocyte
[5] = tested on: Mus musculus; experiment: In vivo efficacy against Candida albicans CY1002 5E6 cells for systemic candidiasis in mice after iv treatment on day 7; type: functional; details: CY1002 5E6, iv, 168 h
[6] = tested on: Candida albicans; experiment: In vitro antifungal activity against Candida albicans CY1002 using 80 percent serum; type: functional, organism-based
[7] = tested on: Candida albicans; experiment: Antifungal activity against Candida albicans ATCC 48130; type: functional
[8] = tested on: Lomentospora prolificans; experiment: Antifungal activity against Scedosporium prolificans ATCC 20054; type: functional
[9] = tested on: Aspergillus fumigatus; experiment: Antifungal activity against Aspergillus fumigatus MTU06002; type: functional
[10] = tested on: Scedosporium boydii; experiment: Antifungal activity against Scedosporium […] IFM40731N.; type: functional
[11] = tested on: Nakaseomyces glabratus; experiment: Antifungal activity against Candida glabrata ATCC 2001; type: functional
[12] = tested on: Pichia kudriavzevii; experiment: Antifungal activity against Candida krusei ATCC 20579; type: functional
[13] = tested on: Candida albicans; experiment: Antifungal activity against Candida albicans KB fluconazole resistant strain.; type: functional
[14] = tested on: Candida tropicalis; experiment: Antifungal activity against Candida tropicalis ATCC 13803; type: functional

Compound	pIC50 [1]	ED50 [2] [mg/kg]	IC50 [3] [µg/mL]	Observed at [4] [µg/mL]	ED50 [5] [mg/kg]	IC50 [6] [µg/mL]	MIC [7] [µg/mL]	MIC [8] [µg/mL]	MIC [9] [µg/mL]	MIC [10] [µg/mL]	MIC [11] [µg/mL]	MIC [12] [µg/mL]	MIC [13] [µg/mL]	MIC [14] [µg/mL]
CCCCCCCCCCCCC[C@@H]1CC(=O)N[C@H]([C@@H](C)O)C(=O)N[C@H](C)C(=O)N[C@@H](Cc2ccc(O)cc2)C(=O)N[C@@H](C(C)C)C(=O)N2C[C@H](O)C[C@H]2C(=O)N[C@H]([C@@H](C)O)C(=O)N[C@@H]([C@@H](C)O)C(=O)N2CC[C@H](O)[C@H]2C(=O)N[C@@H]([C@H](O)CC(N)=O)C(=O)NCC(=O)N[C@H]([C@@H](C)O)C(=O)N[C@@H](CCCN)C(=O)O1 [FR-901469] ([d(aThr)][dA]YV[Hyp][d(aThr)]T[Pro(3S-OH)][Gln(3R-OH)]G[d(aThr)][Orn]; linker N-C via X1)	8.07	> 15	0.07 (≈ 0.0456 µM)	10	0.22	0.54 (≈ 0.352 µM)								
CCCCCCCCCCCCC[C@@H]1CC(=O)N[C@H]([C@@H](C)O)C(=O)N[C@H](C)C(=O)N[C@@H](Cc2ccc(O)cc2)C(=O)N[C@@H](C(C)C)C(=O)N2C[C@H](O)C[C@H]2C(=O)N[C@H]([C@@H](C)O)C(=O)N[C@@H]([C@@H](C)O)C(=O)N2CC[C@H](O)[C@H]2C(=O)N[C@@H]([C@H](O)CC(N)=O)C(=O)NCC(=O)N[C@H]([C@@H](C)O)C(=O)N[C@@H](CCCN(CCN)CCN)C(=O)O1	8.85	13.3	0.1 (≈ 0.0617 µM)	10	0.05	0.42 (≈ 0.259 µM)								
CCCCCCCCCCCCC[C@@H]1CC(=O)N[C@H]([C@@H](C)O)C(=O)N[C@H](C)C(=O)N[C@@H](Cc2ccc(O)cc2)C(=O)N[C@@H](C(C)C)C(=O)N2C[C@H](O)C[C@H]2C(=O)N[C@H]([C@@H](C)O)C(=O)N[C@@H]([C@@H](C)O)C(=O)N2CC[C@H](O)[C@H]2C(=O)N[C@@H]([C@H](O)CC(N)=O)C(=O)NCC(=O)N[C@H]([C@@H](C)O)C(=O)N[C@@H](CCCN(CCCN)C(=O)[C@@H](CCCN)N(CCN)CCN)C(=O)O1	9.60	5.8	0.39 (≈ 0.218 µM)	100	0.12	0.26 (≈ 0.145 µM)	0.37 (≈ 0.207 µM)	0.37 (≈ 0.207 µM)	0.58 (≈ 0.324 µM)	0.37 (≈ 0.207 µM)	1.2 (≈ 0.67 µM)	0.28 (≈ 0.156 µM)	0.31 (≈ 0.173 µM)	0.56 (≈ 0.313 µM)
CC[C@H](C)C[C@H](C)CCCCCCCCC(=O)N[C@H]1C[C@@H](O)[C@@H](NCCN)NC(=O)[C@@H]2[C@@H](O)CCN2C(=O)[C@H]([C@H](O)CCN)NC(=O)[C@H]([C@H](O)[C@@H](O)c2ccc(O)cc2)NC(=O)[C@@H]2C[C@@H](O)CN2C(=O)[C@H]([C@@H](C)O)NC1=O	8.89													
CCCCCOc1ccc(-c2ccc(-c3ccc(C(=O)N[C@@H]4C[C@@H](O)[C@@H](O)NC(=O)C5[C@@H](OC)[C@@H](OC)CN5C(=O)[C@H]([C@@H](C)O)NC(=O)[C@H]([C@H](O)[C@@H](O)c5ccc(O)cc5)NC(=O)[C@@H]5C[C@@H](O)CN5C(=O)[C@H]([C@@H](C)O)NC4=O)cc3)cc2)cc1 (stereo partly specified)	7.74													
CCCCCCCCCCCCC[C@@H]1CC(=O)N[C@@H]([C@@H](C)O)C(=O)N[C@H](C)C(=O)N[C@@H](Cc2ccc(O)cc2)C(=O)N[C@@H](C(C)C)C(=O)N2C[C@H](O)C[C@H]2C(=O)N[C@@H]([C@@H](C)O)C(=O)N[C@@H]([C@@H](C)O)C(=O)N2CC[C@H](O)[C@H]2C(=O)N[C@@H]([C@H](O)CC(N)=O)C(=O)NCC(=O)N[C@@H]([C@@H](C)O)C(=O)N[C@@H](CCCNC(=O)[C@@H](CCCN)N(CCN)CCN)C(=O)O1	9.20	11.6	0.31 (≈ 0.179 µM)	30	0.13	0.31 (≈ 0.179 µM)	0.31 (≈ 0.179 µM)		0.67 (≈ 0.386 µM)		1.4 (≈ 0.807 µM)	0.54 (≈ 0.311 µM)	0.68 (≈ 0.392 µM)	0.35 (≈ 0.202 µM)
CCCCCCCCCCCCC[C@@H]1CC(=O)N[C@@H]([C@@H](C)O)C(=O)N[C@H](C)C(=O)N[C@@H](Cc2ccc(O)cc2)C(=O)N[C@@H](C(C)C)C(=O)N2C[C@H](O)C[C@H]2C(=O)N[C@@H]([C@@H](C)O)C(=O)N[C@@H]([C@@H](C)O)C(=O)N2CC[C@H](O)[C@H]2C(=O)N[C@@H]([C@H](O)CC(N)=O)C(=O)NCC(=O)N[C@@H]([C@@H](C)O)C(=O)N[C@@H](CCCNC(=O)[C@H](CCCN)N(CCN)CCN)C(=O)O1	9.05	8.7	0.37 (≈ 0.213 µM)	100	0.33	0.55 (≈ 0.317 µM)								
CCCCCCCCCCCCC[C@@H]1CC(=O)N[C@@H]([C@@H](C)O)C(=O)N[C@H](C)C(=O)N[C@@H](Cc2ccc(O)cc2)C(=O)N[C@@H](C(C)C)C(=O)N2C[C@H](O)C[C@H]2C(=O)N[C@@H]([C@@H](C)O)C(=O)N[C@@H]([C@@H](C)O)C(=O)N2CC[C@H](O)[C@H]2C(=O)N[C@@H]([C@H](O)CC(N)=O)C(=O)NCC(=O)N[C@@H]([C@@H](C)O)C(=O)N[C@@H](CCCN(CCN)C(=O)[C@H](CCCN)N(CCN)CCN)C(=O)O1	9.70	5.2	0.31 (≈ 0.174 µM)	100	0.08	0.24 (≈ 0.135 µM)	0.37 (≈ 0.208 µM)	2.2 (≈ 1.24 µM)	0.34 (≈ 0.191 µM)	0.35 (≈ 0.197 µM)	1.3 (≈ 0.732 µM)	0.28 (≈ 0.158 µM)	0.35 (≈ 0.197 µM)	0.62 (≈ 0.349 µM)
CCCCCCCCCCCCC[C@@H]1CC(=O)N[C@@H]([C@@H](C)O)C(=O)N[C@H](C)C(=O)N[C@@H](Cc2ccc(O)cc2)C(=O)N[C@@H](C(C)C)C(=O)N2C[C@H](O)C[C@H]2C(=O)N[C@@H]([C@@H](C)O)C(=O)N[C@@H]([C@@H](C)O)C(=O)N2CC[C@H](O)[C@H]2C(=O)N[C@@H]([C@H](O)CC(N)=O)C(=O)NCC(=O)N[C@@H]([C@@H](C)O)C(=O)N[C@@H](CCCN(CCCN)C(=O)[C@@H](N)CCCN)C(=O)O1	9.05	8.7	0.47 (≈ 0.276 µM)	30	0.07	0.27 (≈ 0.158 µM)								
CCCCCCCCCCCCC[C@@H]1CC(=O)N[C@@H]([C@@H](C)O)C(=O)N[C@H](C)C(=O)N[C@@H](Cc2ccc(O)cc2)C(=O)N[C@@H](C(C)C)C(=O)N2C[C@H](O)C[C@H]2C(=O)N[C@@H]([C@@H](C)O)C(=O)N[C@@H]([C@@H](C)O)C(=O)N2CC[C@H](O)[C@H]2C(=O)N[C@@H]([C@H](O)CC(N)=O)C(=O)NCC(=O)N[C@@H]([C@@H](C)O)C(=O)N[C@@H](CCCN(CCCN)C(=O)[C@H](N)CCCN)C(=O)O1	9.08	5.2	0.37 (≈ 0.217 µM)	30	0.05	0.27 (≈ 0.158 µM)								
CCCCCCCCCCCCC[C@@H]1CC(=O)N[C@H]([C@@H](C)O)C(=O)N[C@H](C)C(=O)N[C@@H](Cc2ccc(O)cc2)C(=O)N[C@@H](C(C)C)C(=O)N2C[C@H](O)C[C@H]2C(=O)N[C@H]([C@@H](C)O)C(=O)N[C@@H]([C@@H](C)O)C(=O)N2CC[C@H](O)[C@H]2C(=O)N[C@@H]([C@H](O)CC(N)=O)C(=O)NCC(=O)N[C@H]([C@@H](C)O)C(=O)N[C@@H](CCCNC(=O)[C@H](N)CCCN)C(=O)O1	8.44		0.12 (≈ 0.0728 µM)	30	0.1	0.33 (≈ 0.2 µM)								
CCCCCOc1ccc(-c2ccc(-c3ccc(C(=O)N[C@H]4C[C@@H](O)[C@@H](O)NC(=O)[C@@H]5[C@@H](O)[C@@H](C)CN5C(=O)[C@H]([C@@H](C)O)NC(=O)[C@H]([C@H](O)[C@@H](O)c5ccc(O)cc5)NC(=O)[C@@H]5C[C@@H](O)CN5C(=O)[C@H]([C@@H](C)O)NC4=O)cc3)cc2)cc1 ({pTerphenylCO(4''-OnC5H11)}-[Orn(4R-OH,5R-OH)]T[Hyp][hTyr(3S-OH,4S-OH)]T[Pro(3S-OH,4S-Me)]; lactam 1-C) [listing 1 of 2 here]				1	0.22									
CCCCCOc1ccc(-c2ccc(-c3ccc(C(=O)N[C@H]4C[C@@H](O)[C@@H](O)NC(=O)[C@@H]5[C@@H](O)[C@@H](C)CN5C(=O)[C@H]([C@@H](C)O)NC(=O)[C@H]([C@H](O)[C@@H](O)c5ccc(O)cc5)NC(=O)[C@@H]5C[C@@H](O)CN5C(=O)[C@H]([C@@H](C)O)NC4=O)cc3)cc2)cc1 ({pTerphenylCO(4''-OnC5H11)}-[Orn(4R-OH,5R-OH)]T[Hyp][hTyr(3S-OH,4S-OH)]T[Pro(3S-OH,4S-Me)]; lactam 1-C) [listing 2 of 2 here]			0.014 (≈ 0.0123 µM)			0.55 (≈ 0.482 µM)								

— ChEMBL document CHEMBL1134059, “Synthesis and antifungal activities of novel 1,3-beta-D-glucan synthase inhibitors. Part 2” (Bioorg Med Chem Lett, 2001)
